Source: PubChem BioAssay (NCI)
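In this assay, cells in 96-well plates receive the compound at five concentrations for 48 hours. Endpoints are linearly interpolated between the surrounding concentrations. At the GI50, growth is halved. At the TGI there is no net growth.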

How the values were obtained:
Assay in all cases: DTP human tumour cell line panel, 48 h
[1] = test system: NCI-H23 lung
[2] = test system: UACC-257 melanoma
[3] = test system: HOP-92 NSCLC
[4] = test system: OVCAR-8 ovarian
[5] = test system: UO-31 renal
[6] = test system: SF-539 CNS
[7] = test system: RPMI-8226 leukemia
[8] = test system: SR leukemia
[9] = test system: 786-0 renal
[10] = test system: T-47D breast
[11] = test system: SK-MEL-5 melanoma
[12] = test system: U251 CNS
[13] = test system: SW-620 colon
[14] = test system: CAKI-1 renal
[15] = test system: IGROV1 ovarian
[16] = test system: KM12 colon
[17] = test system: NCI/ADR-RES ovarian
[18] = test system: MCF7 breast
[19] = test system: ACHN renal
[20] = test system: A549 NSCLC
[21] = test system: NCI-H226 lung
[22] = test system: MDA-MB-468 breast
[23] = test system: OVCAR-4 ovarian
[24] = test system: EKVX NSCLC
[25] = test system: SNB-75 CNS
[26] = test system: SK-OV-3 ovarian
[27] = test system: HCT-15 colon
[28] = test system: SK-MEL-28 melanoma
[29] = test system: HCC-2998 colon
[30] = test system: A498 renal
[31] = test system: MALME-3M melanoma
[32] = test system: OVCAR-5 ovarian
[33] = test system: MDA-MB-231 breast
[34] = test system: DU-145 prostate
[35] = test system: MOLT-4 leukemia
[36] = test system: MDA-MB-435
[37] = test system: BT-549 breast
[38] = test system: OVCAR-3 ovarian
[39] = test system: HL-60(TB) leukemia
[40] = test system: CCRF-CEM leukemia
[41] = test system: SN12C renal
[42] = test system: SF-268 CNS
[43] = test system: HT29 colon
[44] = test system: COLO 205 colon
[45] = test system: NCI-H460 lung
[46] = test system: HCT-116 colon
[47] = test system: SNB-19 CNS
[48] = test system: SK-MEL-2 melanoma
[49] = test system: HS 578T breast
[50] = test system: PC-3 prostate
[51] = test system: TK-10 renal
[52] = test system: M14 melanoma
[53] = test system: K-562 leukemia
[54] = test system: SF-295 CNS
[55] = test system: RXF 393 renal
[56] = test system: HOP-62 NSCLC
[57] = test system: UACC-62 melanoma
[58] = test system: NCI-H522 lung
[59] = test system: LOX IMVI melanoma

Nc1cc(-c2c[nH]c3ccc(F)cc23)nc2cc(-c3c[nH]c4ccccc34)nn12
GI50 [1]: 3.8 µM | TGI [1]: 17.7 µM | GI50 [2]: 4.28 µM | TGI [2]: 15.2 µM | GI50 [3]: 2.42 µM | TGI [3]: 7.09 µM | GI50 [4]: 4.3 µM | TGI [4]: 26.7 µM | GI50 [5]: 3.02 µM | TGI [5]: 12.7 µM | GI50 [6]: 2 µM | TGI [6]: 4.01 µM | GI50 [7]: 2.64 µM | TGI [7]: 8.15 µM | GI50 [8]: 2.09 µM | TGI [8]: 8.42 µM | GI50 [9]: 1.49 µM | TGI [9]: 2.93 µM | GI50 [10]: 3.54 µM | TGI [10]: 20.9 µM | GI50 [11]: 3.79 µM | TGI [11]: 13.6 µM | GI50 [12]: 3.53 µM | TGI [12]: 14.1 µM | GI50 [13]: 2.11 µM | TGI [13]: 4.22 µM | GI50 [14]: 2.74 µM | TGI [14]: 12.4 µM | GI50 [15]: 4.26 µM | TGI [15]: 17.6 µM | GI50 [16]: 2.35 µM | TGI [16]: 5.79 µM | GI50 [17]: 3.82 µM | TGI [17]: 19.3 µM | GI50 [18]: 2.54 µM | TGI [18]: 8.12 µM | GI50 [19]: 3.22 µM | TGI [19]: 10.9 µM | GI50 [20]: 3.81 µM | TGI [20]: 20.5 µM | GI50 [21]: 5.57 µM | TGI [21]: 32.6 µM | GI50 [22]: 1.7 µM | TGI [22]: 4.3 µM | GI50 [23]: 4.2 µM | TGI [23]: 18.9 µM | GI50 [24]: 3.49 µM | TGI [24]: 14.9 µM | GI50 [25]: 2.88 µM | TGI [25]: 14.6 µM | GI50 [26]: 10.1 µM | TGI [26]: 23 µM | GI50 [27]: 1.71 µM | TGI [27]: 3.69 µM | GI50 [28]: 2.96 µM | TGI [28]: 9.82 µM | GI50 [29]: 2.02 µM | TGI [29]: 4.14 µM | GI50 [30]: 2.8 µM | TGI [30]: 11.3 µM | GI50 [31]: 2.24 µM | TGI [31]: 4.79 µM | GI50 [32]: 3.3 µM | TGI [32]: 11.1 µM | GI50 [33]: 2 µM | TGI [33]: 3.84 µM | GI50 [34]: 4.3 µM | TGI [34]: 15.3 µM | GI50 [35]: 2.44 µM | TGI [35]: 6.87 µM | GI50 [36]: 3.67 µM | TGI [36]: 15.2 µM | GI50 [37]: 8.6 µM | TGI [37]: 20.8 µM | GI50 [38]: 4.17 µM | TGI [38]: 16.9 µM | GI50 [39]: 2.18 µM | TGI [39]: 9.55 µM | GI50 [40]: 2.65 µM | TGI [40]: 8.01 µM | GI50 [41]: 6.94 µM | TGI [41]: 21.7 µM | GI50 [42]: 4.15 µM | TGI [42]: 21.7 µM | GI50 [43]: 2.09 µM | TGI [43]: 4.72 µM | GI50 [44]: 1.6 µM | TGI [44]: 3.2 µM | GI50 [45]: 2.27 µM | TGI [45]: 5.37 µM | GI50 [46]: 1.91 µM | TGI [46]: 4.1 µM | GI50 [47]: 4.59 µM | TGI [47]: 18.9 µM | GI50 [48]: 3.96 µM | TGI [48]: 15.1 µM | GI50 [49]: 3.73 µM | TGI [49]: 20.5 µM | GI50 [50]: 3.18 µM | TGI [50]: 12.2 µM | GI50 [51]: 5.54 µM | TGI [51]: 19.9 µM | GI50 [52]: 1.98 µM | TGI [52]: 4.21 µM | GI50 [53]: 2.15 µM | TGI [53]: 6.12 µM | GI50 [54]: 1.86 µM | TGI [54]: 4.04 µM | GI50 [55]: 2.19 µM | TGI [55]: 7.82 µM | GI50 [56]: 4.55 µM | TGI [56]: 21.8 µM | GI50 [57]: 6.03 µM | TGI [57]: 19.3 µM

C[C@H]1CN(C(=O)c2ccc3c(NNC(=O)c4ccncn4)nc4cc(F)c(F)cc4n23)CCN1
GI50 [1]: 2 µM | TGI [1]: > 100 µM | GI50 [2]: 3.34 µM | TGI [2]: 20.3 µM | GI50 [3]: 0.246 µM | TGI [3]: 5.56 µM | GI50 [4]: 1.05 µM | TGI [4]: 14 µM | GI50 [5]: 0.284 µM | TGI [5]: 5.08 µM | GI50 [6]: 2.61 µM | TGI [6]: 14.5 µM | GI50 [7]: 2.71 µM | TGI [7]: > 100 µM | GI50 [8]: 0.444 µM | TGI [8]: 11.3 µM | GI50 [9]: 0.879 µM | TGI [9]: 11.4 µM | GI50 [10]: 3.43 µM | TGI [10]: > 100 µM | GI50 [11]: 1.55 µM | TGI [11]: 11.1 µM | GI50 [12]: 0.892 µM | TGI [12]: > 100 µM | GI50 [13]: 1.98 µM | TGI [13]: > 100 µM | GI50 [14]: 0.566 µM | TGI [14]: 27.2 µM | GI50 [15]: 3.29 µM | TGI [15]: > 100 µM | GI50 [16]: 2.29 µM | TGI [16]: 54 µM | GI50 [17]: 1.24 µM | TGI [17]: 6.73 µM | GI50 [18]: 2.75 µM | TGI [18]: 55.8 µM | GI50 [19]: 0.452 µM | TGI [19]: 12.2 µM | GI50 [20]: 0.773 µM | TGI [20]: 15.6 µM | GI50 [21]: 1.49 µM | TGI [21]: 13 µM | GI50 [22]: 1.51 µM | TGI [22]: 4.54 µM | GI50 [23]: 2.12 µM | TGI [23]: 40.1 µM | GI50 [24]: 0.871 µM | TGI [24]: 9.24 µM | GI50 [26]: 1.2 µM | TGI [26]: 17.2 µM | GI50 [27]: 0.18 µM | TGI [27]: 20.1 µM | GI50 [28]: 2.92 µM | TGI [28]: > 100 µM | GI50 [29]: 2.14 µM | TGI [29]: 62.5 µM | GI50 [30]: 19.1 µM | TGI [30]: 34.3 µM | GI50 [31]: 2.57 µM | TGI [31]: 9.98 µM | GI50 [32]: 2.58 µM | TGI [32]: 44.4 µM | GI50 [58]: 2.18 µM | TGI [58]: 20.3 µM | GI50 [33]: 3.42 µM | TGI [33]: 49.9 µM | GI50 [34]: 1.99 µM | TGI [34]: > 100 µM | GI50 [35]: 1.98 µM | TGI [35]: 17.2 µM | GI50 [36]: 4.83 µM | TGI [36]: > 100 µM | GI50 [37]: 4.06 µM | TGI [37]: 85.8 µM | GI50 [38]: 3.32 µM | TGI [38]: 81.1 µM | GI50 [39]: 1.3 µM | TGI [39]: 6.27 µM | GI50 [40]: 1.25 µM | TGI [40]: 8.74 µM | GI50 [41]: 2.87 µM | TGI [41]: > 100 µM | GI50 [42]: 2.17 µM | TGI [42]: > 100 µM | GI50 [43]: 0.495 µM | TGI [43]: 16 µM | GI50 [44]: 2.32 µM | TGI [44]: 15 µM | GI50 [45]: 0.492 µM | TGI [45]: 12.7 µM | GI50 [46]: 0.568 µM | TGI [46]: 22.2 µM | GI50 [47]: 3.4 µM | TGI [47]: > 100 µM | GI50 [48]: 2.73 µM | TGI [48]: 20.1 µM | GI50 [49]: 7.64 µM | TGI [49]: > 100 µM | GI50 [50]: 1.6 µM | TGI [50]: 30.6 µM | GI50 [51]: 0.373 µM | TGI [51]: 16.8 µM | GI50 [59]: 0.88 µM | TGI [59]: 4.44 µM | GI50 [52]: 0.711 µM | TGI [52]: 4.5 µM | GI50 [53]: 1.97 µM | TGI [53]: 32.6 µM | GI50 [54]: 0.418 µM | TGI [54]: 19.1 µM | GI50 [55]: 2.12 µM | TGI [55]: 12.2 µM | GI50 [56]: 0.938 µM | TGI [56]: > 100 µM | GI50 [57]: 1.53 µM | TGI [57]: 4.56 µM
